In patent US11370785B2, “Multicyclic compounds as farnesoid X receptor modulators” (BRISTOL-MYERS SQUIBB COMPANY, priority 2017, dated 2022) one finds EC50 data, which are given here for 37 molecules.

In one assay the target is T1, human FXR (Homo sapiens, UniProt Q96RI1).
T1 construct: expressed in transfected cells; host or cells: HEK293 cells stably carrying a 5xGal4-response-element firefly luciferase reporter, transiently transfected with the pcDNA3.1-Gal4-FXR plasmid
T1 sequence (Q96RI1 262-486 limits assumed): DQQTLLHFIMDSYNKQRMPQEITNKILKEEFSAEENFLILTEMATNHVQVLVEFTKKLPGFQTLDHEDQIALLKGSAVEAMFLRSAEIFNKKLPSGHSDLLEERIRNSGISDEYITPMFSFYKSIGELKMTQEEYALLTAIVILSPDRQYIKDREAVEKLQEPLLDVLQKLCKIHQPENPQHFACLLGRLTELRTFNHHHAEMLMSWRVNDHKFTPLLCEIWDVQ
Nature of the assay: transient human FXR/Gal4-luciferase reporter assay. It counts as cell-based. The following applies: Gal4-hFXR reporter in HEK293 cells; read-out: HLE GAL-FXR EC50. As for the experimental part: The exemplified compounds of the present invention were tested in the transient human FXR/Gal4-luciferase reporter assay, and assay results were reported in Table 1 together with other analytical data.
A Gal4-hFXR fusion construct reporter system was used as the primary assay to characterize compound activity. A construct including 5 copies of the Gal4 promoter response element upstream of a firefly luciferase reporter cDNA was stably expressed in HEK293 cells. This reporter cell line was maintained in Dulbecco's Modified Eagle's medium (DMEM; Gibco) supplemented with 1% penicillin-streptomycin (P/S) solution, 500 μg/mL Zeocin and 10% charcoal/dextran-treated fetal bovine serum (cs-FBS) at 37° C. in a humidified 5% CO2 atmosphere. Another plasmid was constructed in which the human cytomegalovirus promoter in the pcDNA3.1 vector directs the expression of the cDNA encoding a fusion protein comprised of the DNA binding domain from the Gal4 transcription factor fused to the ligand binding domain from human FXR.
The day prior to transfection, the reporter cells in culture are detached from the plate with trypsin and plated into a T75 flask at a sufficient density to achieve approximately 90% confluence the next morning. The transfection reagents are prepared by separately diluting 25 μg of the pcDNA3.1-Gal4-FXR plasmid into 1.87 mL of Opti-MEM (Thermo-Fisher), and 40 μL of Lipofectamine 2000 (Thermo-Fisher) into 1.87 mL of Opti-MEM, and then adding the diluted DNA solution into the diluted Lipofectamine 2000 solution and incubating at room temperature for 15-20 minutes. The mixture is further diluted with 10 mL of a solution comprised of DMEM, 10% cs-FBS, and 1% P/S immediately prior to transferring to the cells. The maintenance culture media is aspirated from the cells and the final transfection mixture is added before the cells are incubated overnight at 37° C. in a humidified 5% CO2 atmosphere. This protocol can be scaled up, and the transiently transfected cells can be cryopreserved in an assay-ready format.
For compound testing, 100 nL of the compounds (serial dilutions in DMSO) are dispensed with an Echo acoustic dispenser (Labcyte) into the wells of a Corning/Costar clear bottom 384-well white plate. The transfected cells are harvested, counted, and diluted such that 10-25,000 cells in 25 μL are plated into each well of the 384-well compound assay plate. The compound-treated cells are incubated overnight at 37° C. in a humidified 5% CO2 atmosphere. The next morning 25 μL of Steady-Glo (Promega) are added to each well of the plate, the mixture is incubated for 15 min. with shaking, and luminescence is measured on an Envision (Perkin Elmer) plate reader. Background counts from cells treated with DMSO alone are subtracted from all raw counts, and the corrected values are converted to a percentage of the control response attained with 8 μM GW-4064.
Turning to `O=C(O)c1cc(F)c2nc(N3CCC4(CC3)CC(=Cc3c(-c5c(Cl)cccc5Cl)noc3C3CC3)C4)sc2c1` [Example 1, 2-(2-((5-Cyclopropyl-3-(2,6-dichlorophenyl)isoxazol-4-yl)methylene)-7-azaspiro[3.5]nonan-7-yl)-4-fluorobenzo[d]thiazole-6-carboxylic acid], the EC50 came out at 41 nM.

Consider `O=C(O)c1ccc2cc(N3CCC4(CC3)CC(=Cc3c(-c5c(Cl)cccc5Cl)noc3C3CC3)C4)ccc2n1` [Example 2, 6-(2-((5-Cyclopropyl-3-(2,6-dichlorophenyl)isoxazol-4-yl)methylene)-7-azaspiro[3.5]nonan-7-yl)quinoline-2-carboxylic acid], for which the EC50 worked out at 47 nM. For `O=C(O)c1cc(F)c2nc(N3CCC4(CC3)CC(Cc3c(-c5ccccc5C(F)(F)F)noc3C3CC3)C4)sc2c1` [Example 3, 2-(2-((5-Cyclopropyl-3-(2-(trifluoromethyl)phenyl)isoxazol-4-yl)methyl)-7-azaspiro[3.5]nonan-7-yl)-4-fluorobenzo[d]thiazole-6-carboxylic acid], the EC50 was 85 nM. For `O=C(O)c1cc(F)c2nc(N3CCC4(CC3)CC(Nc3c(-c5c(Cl)cccc5Cl)noc3C3CC3)C4)sc2c1` [Example 5, 2-(2-((5-Cyclopropyl-3-(2,6-dichlorophenyl)isoxazol-4-yl)amino)-7-azaspiro[3.5]nonan-7-yl)-4-fluorobenzo[d]thiazole-6-carboxylic acid], the EC50 worked out at 60 nM. The same measure, in the same setting: to `O=C(O)c1cc(F)c2nc(N3CCC4(CC3)CC(=Cc3c(C5CC5)nnn3-c3c(Cl)cccc3Cl)C4)sc2c1` [Example 6, 2-(2-((4-Cyclopropyl-1-(2,6-dichlorophenyl)-1H-1,2,3-triazol-5-yl)methylene)-7-azaspiro[3.5]nonan-7-yl)-4-fluorobenzo[d]thiazole-6-carboxylic acid] belongs 402 nM; to `O=C(O)c1cc(F)c2nc(N3CCC4(CC3)CC(=Cc3c(C5CC5)cnn3-c3c(Cl)cccc3Cl)C4)sc2c1` [Example 7, 2-(2-((4-Cyclopropyl-1-(2,6-dichlorophenyl)-1H-pyrazol-5-yl)methylene)-7-azaspiro[3.5]nonan-7-yl)-4-fluorobenzo[d]thiazole-6-carboxylic acid], 201 nM.

On to `O=C(O)c1cc(F)c2nc(N3CCC4(CC3)CC(=Cc3c(-c5c(Cl)cccc5Cl)cnn3C3CC3)C4)sc2c1` [Example 8, 2-(2-((1-Cyclopropyl-4-(2,6-dichlorophenyl)-1H-pyrazol-5-yl)methylene)-7-azaspiro[3.5]nonan-7-yl)-4-fluorobenzo[d]thiazole-6-carboxylic acid], for which the EC50 came to 422 nM. Take `O=C(O)c1cccc(CN2CCC3(CC2)CC(=Cc2c(-c4c(Cl)cccc4Cl)noc2C2CC2)C3)c1` [Example 9, 3-((2-((5-Cyclopropyl-3-(2,6-dichlorophenyl)isoxazol-4-yl)methylene)-7-azaspiro[3.5]nonan-7-yl)methyl)benzoic acid]: the EC50 is 959 nM. Still for that read-out and setting: then `Cc1cccc(Cl)c1-c1noc(C2CC2)c1C=C1CC2(CCN(S(=O)(=O)c3ccc(C(=O)O)cc3)CC2)C1` [Example 10, 4-((2-((3-(2-Chloro-6-methylphenyl)-5-cyclopropylisoxazol-4-yl)methylene)-7-azaspiro[3.5]nonan-7-yl)sulfonyl)benzoic acid], with 321 nM.

Still in this assay, the particulars now being: Gal4-hFXR reporter in HEK293 cells; relative to 8 μM GW-4064; read-out: FXR EC50.
Turning to `O=C(O)c1cc(F)c2nc(N3CCC4(CC3)CC(Cc3c(-c5c(Cl)cccc5Cl)noc3C3CC3)C4)sc2c1` [Example 11], the EC50 is 44 nM.

For `O=C(O)c1cccc(N2CCC3(CC2)CC(Cc2c(-c4c(Cl)cccc4Cl)noc2C2CC2)C3)n1` [Example 12], the EC50 turned out to be 2190 nM. For `O=C(O)c1ccc(N2CCC3(CC2)CC(Nc2c(-c4c(Cl)cccc4Cl)noc2C2CC2)C3)nc1` [Example 13], the EC50 was determined as 1220 nM. On the same count and under the same terms, to `O=C(O)c1cccc(N2CCC3(CC2)CC(Nc2c(-c4c(Cl)cccc4Cl)noc2C2CC2)C3)n1` [Example 14] belongs 1570 nM.

Regarding `O=C(O)c1ccc(N2CCC3(CC2)CC(Nc2c(-c4c(Cl)cccc4Cl)noc2C2CC2)C3)nn1` [Example 15], the EC50 was found to be 1820 nM.

For `O=C(O)c1cc(F)c2nc(N3C4CCC3CC3(CC(Nc5c(-c6c(Cl)cccc6Cl)noc5C5CC5)C3)C4)sc2c1` (stereo not shown) [Example 16], the EC50 came out at 514 nM. Same read-out and setting: to `O=C(O)c1cc(F)c2nc(N3CCC4(CC3)CC(Nc3c(-c5ccccc5OC(F)(F)F)noc3C3CC3)C4)sc2c1` [Example 18] belongs 77 nM. Consider `Cn1cc(C(=O)O)c2cnc(N3CCC4(CC3)CC(Nc3c(-c5c(Cl)cccc5Cl)noc3C3CC3)C4)nc21` [Example 19], for which the EC50 worked out at 305 nM. As for `Cc1cc(C(=O)O)cc2sc(N3CCC4(CC3)CC(=Cc3c(C5CC5)nnn3-c3c(Cl)cccc3Cl)C4)nc12` [Example 20], the EC50 amounted to 252 nM. `O=C(O)c1ccc(N2CCC3(CC2)CC(=Cc2c(C4CC4)nnn2-c2c(Cl)cccc2Cl)C3)nc1` [Example 21]: the EC50 worked out at 5280 nM. As to `O=C(O)c1ccc(N2CCC3(CC2)CC(=Cc2c(C4CC4)cnn2-c2c(Cl)cccc2Cl)C3)nc1` [Example 22], the EC50 amounted to 4700 nM.

On to `O=C(O)c1ccc(N2CCC3(CC2)CC(=Cc2c(-c4c(Cl)cccc4Cl)cnn2C2CC2)C3)nc1` [Example 23], for which the EC50 is 4640 nM.

Take `Cn1cc(C(=O)O)c2ccc(N3CCC4(CC3)CC(=Cc3c(-c5c(Cl)cccc5Cl)noc3C3CC3)C4)cc21` [Example 24]: the EC50 was found to be 9 nM. Consider `O=C(O)c1cc(C(F)(F)F)c2cc(N3CCC4(CC3)CC(=Cc3c(-c5ccccc5OC(F)(F)F)noc3C3CC3)C4)ccc2n1` [Example 25], for which the concentration giving a half-maximal response (EC50) was determined as 23 nM. On the same count and under the same terms, then `O=C(O)c1cc(F)c2nc(N3CCC4(CC3)CC(=Cc3c(-c5ccccc5OC(F)(F)F)noc3C3CC3)C4)sc2c1` [Example 26], with 352 nM; and `Cn1cc(C(=O)O)c2ccc(N3CCC4(CC3)CC(=Cc3c(-c5ccccc5OC(F)(F)F)noc3C3CC3)C4)cc21` [Example 27], with 21 nM. Still for that read-out and setting: to `Cn1cc(C(=O)O)c2ccc(N3CCC4(CC3)CC(=Cc3c(-c5ccccc5OC(F)(F)F)noc3C3CC3)C4)nc21` [Example 28] belongs 229 nM. Turning to `O=C(O)c1ccc2cc(N3CCC4(CC3)CC(=Cc3c(-c5ccccc5C(F)(F)F)noc3C3CC3)C4)ccc2n1` [Example 29], the EC50 came to 172 nM. In the case of `O=C(O)c1cc(C(F)(F)F)c2cc(N3CCC4(CC3)CC(=Cc3c(-c5ccccc5C(F)(F)F)noc3C3CC3)C4)ccc2n1` [Example 30], the EC50 is 12 nM. As to `O=C(O)c1cc(F)c2nc(N3CCC4(CC3)CC(=Cc3c(-c5ccccc5C(F)(F)F)noc3C3CC3)C4)sc2c1` [Example 31], the EC50 is 173 nM. For the molecule `O=C(O)c1ccc2cc(N3CCC4(CC3)CC(Cc3c(-c5ccccc5C(F)(F)F)noc3C3CC3)C4)ccc2n1` [Example 32], the EC50 is 243 nM. In the case of `O=C(O)c1nc(C(F)(F)F)n2cc(N3CCC4(CC3)CC(=Cc3c(-c5ccccc5C(F)(F)F)noc3C3CC3)C4)ccc12` [Example 33], the EC50 was 6 nM.

As to `O=C(O)c1cc2ccc(N3CCC4(CC3)CC(Cc3c(-c5ccccc5C(F)(F)F)noc3C3CC3)C4)cc2nn1` [Example 34], the concentration giving a half-maximal response (EC50) came to 1350 nM. On the same count and under the same terms, then `O=C(O)c1cc2ccc(N3CCC4(CC3)CC(Cc3c(-c5ccccc5C(F)(F)F)noc3C3CC3)C4)cc2cn1` [Example 35], with 960 nM; and `O=C(O)c1cc2ccc(N3CCC4(CC3)CC(=Cc3c(-c5ccccc5C(F)(F)F)noc3C3CC3)C4)cc2nn1` [Example 36], with 878 nM; and `O=C(O)c1cc2ccc(N3CCC4(CC3)CC(=Cc3c(-c5ccccc5C(F)(F)F)noc3C3CC3)C4)cc2cn1` [Example 37], with 1410 nM. For the molecule `Cn1cc(C(=O)O)c2ccc(N3CCC4(CC3)CC(Cc3c(-c5ccccc5C(F)(F)F)noc3C3CC3)C4)cc21` [Example 38], the EC50 was 28 nM. On the same count and under the same terms, to `Cn1cc(C(=O)O)c2ccc(N3CCC4(CC3)CC(=Cc3c(-c5ccccc5C(F)(F)F)noc3C3CC3)C4)cc21` [Example 39] belongs 4 nM.
